# From patent US7301070B2, “Plant fatty acid synthases and use in improved methods for production of medium-chain fatty acids” (Calgene LLC, priority 1997, dated 2007)
# Experiments:
# Synthase I (KAS I) = settings: cited from earlier work
# [1] = test system: fatty acid synthesis in Brassica seed extracts; assay: In vitro fatty acid synthesis assay in seed extracts preincubated with cerulenin; assay type: biochemical
# Protocol: (§1) Seed extracts were prepared from developing seeds of nontransgenic controls or transgenic Brassica expressing chKAS A-2-7 as described in Slabaugh et al. (Plant Journal, 1998 in press) and Leonard et al. (Plant Journal, 1998, in press). In vitro fatty acid synthesis assays were performed as described by Post-Beittenmiller (J. Biol. Chem. (1991), 266:1858-1865). Extracts were concentrated by ammonium sulfate precipitation and desalting using P-6 columns (Bio-Rad, Hercules, Calif.). Reactions (65 μl) contained 0.1M Tris/HCl (pH 8.0), 1 mM dithiothreitol, […] recombinant spinach ACP1, 1 mM NADH, 2 mM NADPH, 50 μM malonyl-CoA, 10 μM [1-^14C]acetyl-CoA (50 mCi/mmol), 1 mg/ml BSA, and 0.25 mg/ml seed protein. Selected seed extracts were preincubated with cerulenin at 23° C. for 10 min. Reaction products were separated on an 18% acrlamide gel containing 2.25M urea, electroblotted onto to nitrocellulose and quntitated by phosporimaging using Image QuaNT software (Molecular Dynamics, Sunnyvale, Calif.). Authentic acyl-ACPs were run in parallel, immunoblotted and finally detected by anti-ACP serum to confirm fatty acid chain lengths.
# Synthase III = settings: cited from earlier work
# Ch KAS A-2-7 = assay: In vitro fatty acid synthesis assay, seed extracts of transgenic Brassica expressing chKAS A-2-7; assay type: biochemical, Cuphea hookeriana; settings: conclusion from FIG. 22 data
# Protocol: as §1
# Synthase II (KAS II) = settings: higher concentrations than KAS I; cited from earlier work
structure (smiles),measurement,setting,value
C/C=C/C/C=C/CCC(=O)[C@H]1O[C@H]1C(N)=O [cerulenin],concentration of cerulenin at which KAS I is sensitive to inhibition,Synthase I (KAS I),1 µM
same,inhibition of extension of the spinach-ACP by cerulenin,[1]; seed extracts from transgenic lines compared with nontransgenic control Brassica,much less inhibited
same,synthesis of longer chain fatty acids after pretreatment of extracts with cerulenin,"[1]; transgenic (5401-9) and nontransgenic control seed extracts, preincubated at 23° C. for 10 min",markedly reduced
same,sensitivity of synthase III to cerulenin inhibition,Synthase III,insensitive to inhibition by cerulenin
same,sensitivity of chKAS A-2-7 to cerulenin,Ch KAS A-2-7,cerulenin-resistant
same,concentration of cerulenin at which KAS II is inhibited,Synthase II (KAS II),50 µM
